The test system of this experiment is LPS-injected mice. Kind of experiment: Sucrose preference test in the LPS-induced model of depression. Format: in vivo. The settings on record: Example 9; male C57BL/6, i.p. 1 h before LPS 330 µg/kg; mg/kg: CBD 30; CBDA 1 or 5; BCP 50; kaempferol 30; CBD 30 plus THC 10; CBD 30 plus kaempferol 30. From the text:
In a preliminary screening experiment, subjects were 4-6 months-old male C57BL/6 (Jackson Laboratories, USA). Animals were housed 2-3/cage, kept in an air-conditioned room (23+°C) and given ad libitum access to food and water. The mice were kept in a reversed light/dark cycle, with lights off from 7 a.m. to 7 p.m. All experiments were approved by the Hebrew University of Jerusalem Ethics Committee on Animal Care and Use. In preparation for the Sucrose Preference Test, mice were habituated 2-3 times to sucrose drinking, by exposing them overnight to two graduated tubes, one containing water and the other containing sucrose solution (1%, w/v). Water and sucrose consumption were measured, and sucrose preference was computed by dividing the amount of sucrose consumed by drinking (ml sucrose) by the total drinking volume (ml of sucrose + water). One day later, the weight of the mice and the food in their cages was weighed for later analysis of food consumption and body weight changes. Groups of mice were injected intraperitoneally (i.p.) with either vehicle (cremophor, ethanol and PBS, 1:1:18 (v/v/v)) or a cannabinoid-based formulation (by itself or with another cannabinoid, or a terpene or a flavonoid). One hour later, each of these groups was injected with LPS (330 µg/kg). All injections were administered at a dose of 10 ml/kg. Four hours following the LPS injection, mice were tested in the Open-Field Test. In this test, the measured locomotor activity reflects not only motor capacity, but particularly the innate motivation for spatial exploration (which increases the distance travelled) and the anxiety level (which reduces the distance travelled, in general, and particularly the distance and time spent in the center of the open field). Each subject was placed near one of the walls of a white 50 X 50 cm^2 arena with 40 cm high walls. The distance travelled (cm), the velocity of the movement (cm/second), the time spent (seconds), distance travelled (cm) in the center area of the arena, as well as the number of entries from the perimeter area into the center of the arena were automatically measured over a 4-minute period, using EthoVision XT video tracking system and software (Noldus, The Netherlands). Twenty-four hours after the LPS injection, mice were tested in the Social Exploration Test. […] Social exploration, defined as the time of near contact between the nose of the subject and the juvenile in the small cage was recorded for 4 min, using computerized in-house software. Sucrose preference was assessed, as described above, between 8 to 27 hr post LPS injection. Body weight and weight of the food were measured two hours before the LPS injection, and again after 24 hours, and the change in body weight and food consumption were calculated. […]

In the case of `C=C1CC/C=C(\C)CC[C@@H]2[C@@H]1CC2(C)C` [β-caryophyllene], the “sucrose preference compared with vehicle-treated groups” value is reported as “significantly increased sucrose preference”.

The record behind these values is US20230270764A1, “COMPOSITION COMPRISING CANNABINOIDS, TERPENES, AND FLAVONOIDS FOR TREATING DEPRESSION” (priority 2020, published 2023).
